Experimental data: patent publication US12559474B2, “Triazine derivatives having virus replication inhibitory activity and pharmaceutical composition comprising the same” (priority 2021, dated 2026)
Values joined by “and” are separate entries in the source; they are usually repeats but may differ in a detail not shown here. Equal entries are not always repeated.

target: SARS-CoV-2 3CL protease (Severe acute respiratory syndrome coronavirus 2, UniProt P0DTD1); assay: biochemical; conditions: IC50

Q: For Cc1cnc(NC23CC(Nc4nc(=O)n(Cc5ccc[nH]c5=O)c(=O)n4Cc4cc(F)c(F)c(F)c4)(C2)C3)nc1 [II-0444], which IC50 is on record?
A: < 100 nM

Q: How did the IC50 turn out when Cc1cnn(Cc2cc(F)c(F)cc2Cn2c(Nc3cc4cn(C)nc4cc3Cl)nc(=O)n(Cc3ncn(C)n3)c2=O)c1 [II-0637] was run?
A: < 100 nM

Q: Which IC50 does the source give for COc1ccc(Nc2nc(=O)n(Cc3cc4ccncc4[nH]c3=O)c(=O)n2Cc2cc(F)c(F)c(F)c2)cc1 [Compound I-0080] here?
A: < 100 nM

Q: How did the IC50 turn out when COc1ccc(Nc2nc(=O)n(Cc3ccc[nH]c3=O)c(=O)n2Cc2cc(F)cc(C#N)c2)cc1 [Compound I-0234] was run?
A: < 100 nM

Q: Which IC50 does the source give for CCNC(=O)Cn1cc2cc(Nc3nc(=O)n(Cc4ncn(C)n4)c(=O)n3Cc3cc(F)c(F)c(Cl)c3)c(Cl)cc2n1 [II-0150] here?
A: < 100 nM

Q: With COc1ccc(Nc2nc(=O)n(Cc3ccc[nH]c3=O)c(=O)n2C2CCCc3cc(F)c(F)cc32)cc1 (racemic) [Compound I-0257] as the molecule, how does the IC50 read?
A: 2900 nM

Q: With COc1ccc(Nc2nc(=O)n(Cc3c[nH]c(=S)[nH]c3=O)c(=O)n2Cc2cc(F)c(F)c(F)c2)cc1 [Compound I-0103] as the molecule, how does the IC50 read?
A: < 100 nM

Q: Which IC50 does the source give for COc1ccc(Nc2nc(=O)n(Cc3ccc(C(=O)N(C)C)[nH]c3=O)c(=O)n2Cc2cc(F)c(F)c(F)c2)cc1 [Compound I-0072] here?
A: < 100 nM

Q: How did the IC50 turn out when COc1ccc(Nc2nc(=O)n(Cc3cc(-c4cn(C)cn4)c[nH]c3=O)c(=O)n2Cc2cc(F)c(F)c(F)c2)cc1 [Compound I-0105] was run?
A: < 100 nM

Q: With Cn1cnc(Cn2c(=O)nc(Nc3cc4cn(C)nc4cc3Cl)n(Cc3cc(F)c(F)cc3C(F)(F)F)c2=O)n1 [II-0634] as the molecule, how does the IC50 read?
A: < 100 nM

Q: How did the IC50 turn out when Cc1cncc(-n2c(=O)nc(Nc3cc4c(cc3C)nc(C)n4C)n(Cc3ccc(F)c(C#N)c3)c2=O)c1 [II-0358] was run?
A: < 100 nM

Q: Cn1cnc(Cn2c(=O)nc(Nc3cc4cn(CC(=O)N5CCCCC5)nc4cc3Cl)n(Cc3cc(Cl)c(F)cc3F)c2=O)n1 [II-0134] was tested. Which IC50 did it give?
A: < 100 nM

Q: With COC(=O)c1cccc2c1CN(c1nc(=O)n(Cc3ccc[nH]c3=O)c(=O)n1Cc1cc(F)c(F)c(F)c1)C2 [II-0216] as the molecule, how does the IC50 read?
A: < 100 nM

Q: How did the IC50 turn out when CN(C(=O)Cn1cc2cc(Nc3nc(=O)n(Cc4ncn(C)n4)c(=O)n3Cc3cc(Cl)c(F)cc3F)c(Cl)cc2n1)C1CC1 [II-0146] was run?
A: < 100 nM

Q: Cn1cnc(Cn2c(=O)nc(Nc3cc4cn(C)nc4cc3Cl)n(CC3CCCC3)c2=O)n1 [II-0605] was tested. Which IC50 did it give?
A: 1000 to 10000 nM

Q: For Cc1nc2cc(Cl)c(Nc3nc(=O)n(Cc4cc(Cl)c[nH]c4=O)c(=O)n3Cc3cc(F)c(F)c(F)c3)cc2n1C [Compound I-0078], which IC50 is on record?
A: < 100 nM

Q: Cn1cnc(Cn2c(=O)nc(Nc3cc4cn(C5CCNCC5)nc4cc3Cl)n(Cc3cc(Cl)c(F)cc3F)c2=O)n1 [II-0532] was tested. Which IC50 did it give?
A: < 100 nM

Q: COc1ccc(Nc2nc(=O)n(Cc3cn(CCO)cn3)c(=O)n2Cc2cc(F)c(F)c(F)c2)cc1 [Compound I-0415] was tested. Which IC50 did it give?
A: 3000 nM and 1000 to 10000 nM

Q: Which IC50 does the source give for O=c1[nH]cccc1Cn1c(=O)nc(NC23CC(Nc4ncc5ccccc5n4)(C2)C3)n(Cc2cc(F)c(F)c(F)c2)c1=O [II-0457] here?
A: < 100 nM

Q: For CN1CC[C@H](n2cc3cc(Nc4nc(=O)n(Cc5ncn(C)n5)c(=O)n4Cc4cc(F)c(F)cc4F)c(Cl)cc3n2)C1=O [II-0465], which IC50 is on record?
A: < 100 nM

Q: How did the IC50 turn out when O=c1[nH]cccc1Cn1c(=O)nc(NC2CCCC2)n(Cc2cc(F)c(F)c(F)c2)c1=O [Compound I-0204] was run?
A: 610 nM and 100 to 1000 nM

Q: How did the IC50 turn out when CCNC(=O)Cn1cc2cc(Nc3nc(=O)n(Cc4ncn(C)n4)c(=O)n3Cc3cc(Cl)c(F)cc3F)c(Cl)cc2n1 [II-0151] was run?
A: < 100 nM

Q: With Cn1cnc(Cn2c(=O)nc(Nc3cc4cn(CCN)nc4cc3Cl)n(Cc3cc(Cl)c(F)cc3F)c2=O)n1 [II-0530] as the molecule, how does the IC50 read?
A: < 100 nM

Q: With CC(=O)Nc1nc2cc(Cl)c(Nc3nc(=O)n(Cc4ncn(C)n4)c(=O)n3Cc3ccc(F)c(C#N)c3)cc2s1 [II-0083] as the molecule, how does the IC50 read?
A: < 100 nM

Q: Which IC50 does the source give for CN(C)C(=O)Cn1cc2cc(Nc3nc(=O)n(Cc4ccc[nH]c4=O)c(=O)n3Cc3cc(F)c(F)c(F)c3)c(Cl)cc2n1 [Compound I-0367] here?
A: < 100 nM

Q: For Cn1cc2cc(Nc3nc(=O)n(Cc4cc5[nH]cnc5cn4)c(=O)n3Cc3cc(F)c(F)cc3F)c(Cl)cc2n1 [II-0256], which IC50 is on record?
A: 160 nM

Q: Which IC50 does the source give for Cn1cnc2ccc(Nc3nc(=O)n(Cc4ccc[nH]c4=O)c(=O)n3Cc3cc(F)c(F)c(F)c3)cc21 [Compound I-0144] here?
A: < 100 nM

Q: With Cn1cnc(Cn2c(=O)nc(Nc3cc4cn(CC(=O)N5CC(F)(F)C5)nc4cc3Cl)n(Cc3cc(Cl)c(F)cc3F)c2=O)n1 [II-0136] as the molecule, how does the IC50 read?
A: < 100 nM

Q: Which IC50 does the source give for Cn1nnc2cc(Cl)c(Nc3nc(=O)n(Cc4ccc[nH]c4=O)c(=O)n3Cc3cc(F)c(F)c(F)c3)cc21 [Compound I-0440] here?
A: < 100 nM

Q: Cc1nc2cc(Cl)c(Nc3nc(=O)n(Cc4ccc[nH]c4=O)c(=O)n3Cc3cc(F)c(F)c(F)c3F)cc2n1C [Compound I-0265] was tested. Which IC50 did it give?
A: < 100 nM

Q: Cc1cncc(-n2c(=O)nc(Nc3ccc(N=S(C)(C)=O)cc3OC(F)(F)F)n(Cc3cc(Cl)ccc3C)c2=O)c1 [II-0632] was tested. Which IC50 did it give?
A: < 100 nM

Q: For O=c1cc(Cl)c(Nc2nc(=O)n(Cc3ccc[nH]c3=O)c(=O)n2Cc2cc(F)c(F)c(F)c2)c[nH]1 [Compound I-0246], which IC50 is on record?
A: < 100 nM

Q: With Cn1cnc(Cn2c(=O)nc(Nc3cc4cn(C)nc4cc3Cl)n(Cc3cc(Cl)c(F)cn3)c2=O)n1 [II-0542] as the molecule, how does the IC50 read?
A: < 100 nM

Q: With Cn1cnc(Cn2c(=O)nc(Nc3cc4cn(CC(=O)N5CCC5)nc4cc3Cl)n(Cc3cc(F)c(F)c(Cl)c3)c2=O)n1 [II-0153] as the molecule, how does the IC50 read?
A: < 100 nM

Q: With CC(=O)N1CC(n2cc3cc(Nc4nc(=O)n(Cc5ccc[nH]c5=O)c(=O)n4Cc4cc(F)c(F)c(F)c4)c(Cl)cc3n2)C1 [Compound I-0448] as the molecule, how does the IC50 read?
A: < 100 nM

Q: Cc1ccc(Cl)cc1Cn1c(NC23CC(Nc4ncccn4)(C2)C3)nc(=O)n(Cc2ccncc2C)c1=O [II-0630] was tested. Which IC50 did it give?
A: < 100 nM

Q: For COc1ccc(Nc2nc(=O)n(Cc3cc(-c4cnn(C)c4)c[nH]c3=O)c(=O)n2Cc2cc(F)c(F)c(F)c2)cc1 [Compound I-0259], which IC50 is on record?
A: < 100 nM

Q: Which IC50 does the source give for Cc1nc2cc(Cl)c(Nc3nc(=O)n(Cc4ncn(C)n4)c(=O)n3Cc3cc(F)c(F)cc3F)cc2n1C [II-0019] here?
A: < 100 nM

Q: With Cc1cncc(-n2c(=O)nc(Nc3cc(Cl)c(N=S4(=O)CCCC4)cc3Cl)n(Cc3cc(Cl)ccc3C)c2=O)c1 [II-0619] as the molecule, how does the IC50 read?
A: < 100 nM

Q: Which IC50 does the source give for COCCN(C)C(=O)Cn1cc2cc(Nc3nc(=O)n(Cc4ncn(C)n4)c(=O)n3Cc3cc(F)c(F)c(Cl)c3)c(Cl)cc2n1 [II-0141] here?
A: < 100 nM

Q: For CN(C)C(=O)CCn1cc2cc(Nc3nc(=O)n(Cc4ncn(C)n4)c(=O)n3Cc3cc(F)c(F)c(Cl)c3)c(Cl)cc2n1 [II-0561], which IC50 is on record?
A: < 100 nM

Q: With CN(C(=O)Cn1cc2cc(Nc3nc(=O)n(Cc4ncn(C)n4)c(=O)n3Cc3cc(F)c(F)c(Cl)c3)c(Cl)cc2n1)C1CC1 [II-0155] as the molecule, how does the IC50 read?
A: < 100 nM

Q: For Cc1c[nH]nc1[C@@H]1C[C@H]1Nc1nc(=O)n(Cc2ccc[nH]c2=O)c(=O)n1Cc1cc(F)c(F)c(F)c1 (racemic) [II-0373], which IC50 is on record?
A: 430 nM

Q: Which IC50 does the source give for CNC(=O)Cn1cc2cc(Nc3nc(=O)n(Cc4ncn(C)n4)c(=O)n3Cc3cc(Cl)c(F)cc3F)c(Cl)cc2n1 [II-0137] here?
A: < 100 nM

Q: For O=c1[nH]cccc1Cn1c(=O)nc(Nc2ccc(F)cc2Cl)n(Cc2cc(F)c(F)c(F)c2)c1=O [Compound I-0001], which IC50 is on record?
A: 100 to 1000 nM

Q: With CC(=O)NCCn1cc2cc(Nc3nc(=O)n(Cc4ccccn4)c(=O)n3Cc3cc(F)c(F)cc3F)c(Cl)cc2n1 [II-0248] as the molecule, how does the IC50 read?
A: < 100 nM

Q: Which IC50 does the source give for Cc1cncc(-n2c(=O)nc(Nc3cc4cn(CCN)nc4cc3Cl)n(Cc3cc(Cl)ccc3Cl)c2=O)c1 [II-0611] here?
A: < 100 nM

Q: Which IC50 does the source give for O=c1[nH]cccc1Cn1c(=O)nc(NC(c2ccccc2)c2ccccc2O)n(Cc2cc(F)c(F)c(F)c2)c1=O (stereo not drawn) [II-0229] here?
A: 250 nM
